Measured values: PubChem BioAssay (NCI)
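At the GI50, growth is halved. The concentration for full growth arrest is given as TGI.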

Assays:
Assay in all cases: inhibition of tumour cell growth, NCI panel, 384-well format
786-0 renal = test system: 786-0 renal
A498 renal = test system: A498 renal
A549 NSCLC = test system: A549 NSCLC
ACHN renal = test system: ACHN renal
BT-549 breast = test system: BT-549 breast
CAKI-1 renal = test system: CAKI-1 renal
CCRF-CEM leukemia = test system: CCRF-CEM leukemia
COLO 205 colon = test system: COLO 205 colon
DU-145 prostate = test system: DU-145 prostate
EKVX NSCLC = test system: EKVX NSCLC
HCC-2998 colon = test system: HCC-2998 colon
HCT-15 colon = test system: HCT-15 colon
HL-60(TB) leukemia = test system: HL-60(TB) leukemia
HOP-62 NSCLC = test system: HOP-62 NSCLC
HOP-92 NSCLC = test system: HOP-92 NSCLC
HS 578T breast = test system: HS 578T breast
HT29 colon = test system: HT29 colon
IGROV1 ovarian = test system: IGROV1 ovarian
K-562 leukemia = test system: K-562 leukemia
KM12 colon = test system: KM12 colon
LOX IMVI melanoma = test system: LOX IMVI melanoma
M14 melanoma = test system: M14 melanoma
MALME-3M melanoma = test system: MALME-3M melanoma
MCF7 breast = test system: MCF7 breast
MDA-MB-231 breast = test system: MDA-MB-231 breast
MDA-MB-435 melanoma = test system: MDA-MB-435 melanoma
MDA-MB-468 breast = test system: MDA-MB-468 breast
MOLT-4 leukemia = test system: MOLT-4 leukemia
NCI-H226 lung = test system: NCI-H226 lung
NCI-H23 lung = test system: NCI-H23 lung
NCI-H322M lung = test system: NCI-H322M lung
NCI-H460 NSCLC = test system: NCI-H460 NSCLC
NCI-H522 lung = test system: NCI-H522 lung
NCI/ADR-RES ovarian = test system: NCI/ADR-RES ovarian
OVCAR-3 ovarian = test system: OVCAR-3 ovarian
OVCAR-4 ovarian = test system: OVCAR-4 ovarian
OVCAR-5 ovarian = test system: OVCAR-5 ovarian
OVCAR-8 ovarian = test system: OVCAR-8 ovarian
PC-3 prostate = test system: PC-3 prostate
RPMI-8226 leukemia = test system: RPMI-8226 leukemia
RXF 393 renal = test system: RXF 393 renal
SF-268 CNS = test system: SF-268 CNS
SF-295 CNS = test system: SF-295 CNS
SF-539 CNS = test system: SF-539 CNS
SK-MEL-28 melanoma = test system: SK-MEL-28 melanoma
SK-MEL-5 melanoma = test system: SK-MEL-5 melanoma
SK-OV-3 ovarian = test system: SK-OV-3 ovarian
SN12C renal = test system: SN12C renal
SNB-19 CNS = test system: SNB-19 CNS
SNB-75 CNS = test system: SNB-75 CNS
SR leukemia = test system: SR leukemia
SW-620 colon = test system: SW-620 colon
T-47D breast = test system: T-47D breast
TK-10 renal = test system: TK-10 renal
U251 glioblastoma = test system: U251 glioblastoma
UACC-257 melanoma = test system: UACC-257 melanoma
UACC-62 melanoma = test system: UACC-62 melanoma
UO-31 renal = test system: UO-31 renal

CN(C)CCOc1ccc(-c2nc(-c3ccc4c(c3)CC/C4=N\O)c(-c3ccncc3)[nH]2)cc1
GI50 ([…]-0 renal): 1790 nM
TGI (786-0 renal): 3200 nM
GI50 (A498 renal): 1880 nM
TGI (A498 renal): 3310 nM
GI50 (A549 NSCLC): 1990 nM
TGI (A549 NSCLC): 4020 nM
GI50 (ACHN renal): 2140 nM
TGI (ACHN renal): 4320 nM
GI50 (BT-549 breast): 1960 nM
TGI (BT-549 breast): 3390 nM
GI50 (CAKI-1 renal): 1980 nM
TGI (CAKI-1 renal): 3430 nM
GI50 (CCRF-CEM leukemia): 1880 nM
TGI (CCRF-CEM leukemia): 3290 nM
GI50 (COLO 205 colon): 20.3 nM
TGI (COLO 205 colon): 1130 nM
GI50 (DU-145 prostate): 3090 nM
TGI (DU-145 prostate): 9610 nM
GI50 (EKVX NSCLC): 1890 nM
TGI (EKVX NSCLC): 3430 nM
GI50 (HCC-2998 colon): 1690 nM
TGI (HCC-2998 colon): 3080 nM
GI50 (HCT-15 colon): 2450 nM
TGI (HCT-15 colon): 6460 nM
GI50 (HL-60(TB) leukemia): 941 nM
TGI (HL-60(TB) leukemia): 2090 nM
GI50 (HOP-62 NSCLC): 1850 nM
TGI (HOP-62 NSCLC): 3260 nM
GI50 (HOP-92 NSCLC): 1740 nM
TGI (HOP-92 NSCLC): 3120 nM
GI50 (HS 578T breast): 1880 nM
TGI (HS 578T breast): 3290 nM
GI50 (HT29 colon): 555 nM
TGI (HT29 colon): 2060 nM
GI50 (IGROV1 ovarian): 13100 nM
TGI (IGROV1 ovarian): 25900 nM
GI50 (K-562 leukemia): 1970 nM
TGI (K-562 leukemia): 3430 nM
GI50 (KM12 colon): 1900 nM
TGI (KM12 colon): 3330 nM
GI50 (LOX IMVI melanoma): 963 nM
TGI (LOX IMVI melanoma): 2160 nM
GI50 (M14 melanoma): 33.4 nM
TGI (M14 melanoma): 839 nM
GI50 (MALME-3M melanoma): 10.6 nM
TGI (MALME-3M melanoma): 34.2 nM
GI50 (MCF7 breast): 1460 nM
TGI (MCF7 breast): 2810 nM
GI50 (MDA-MB-231 breast): 1150 nM
TGI (MDA-MB-231 breast): 2370 nM
GI50 (MDA-MB-435 melanoma): 58.9 nM
TGI (MDA-MB-435 melanoma): 1600 nM
GI50 (MDA-MB-468 breast): 2140 nM
TGI (MDA-MB-468 breast): 3580 nM
GI50 (MOLT-4 leukemia): 2150 nM
TGI (MOLT-4 leukemia): 3600 nM
GI50 (NCI-H226 lung): 2320 nM
TGI (NCI-H226 lung): 3780 nM
GI50 (NCI-H23 lung): 1380 nM
TGI (NCI-H23 lung): 2860 nM
GI50 (NCI-H322M lung): 1850 nM
TGI (NCI-H322M lung): 3510 nM
GI50 (NCI-H460 NSCLC): 1890 nM
TGI (NCI-H460 NSCLC): 3380 nM
GI50 (NCI-H522 lung): 1590 nM
TGI (NCI-H522 lung): 2950 nM
GI50 (NCI/ADR-RES ovarian): 21900 nM
TGI (NCI/ADR-RES ovarian): 58300 nM
GI50 (OVCAR-3 ovarian): 2070 nM
TGI (OVCAR-3 ovarian): 3520 nM
GI50 (OVCAR-4 ovarian): 2680 nM
TGI (OVCAR-4 ovarian): 4170 nM
GI50 (OVCAR-5 ovarian): 1860 nM
TGI (OVCAR-5 ovarian): 3320 nM
GI50 (OVCAR-8 ovarian): 1890 nM
TGI (OVCAR-8 ovarian): 3320 nM
GI50 (PC-3 prostate): 1780 nM
TGI (PC-3 prostate): 3270 nM
GI50 (RPMI-8226 leukemia): 1900 nM
TGI (RPMI-8226 leukemia): 3360 nM
GI50 (RXF 393 renal): 1680 nM
TGI (RXF 393 renal): 3050 nM
GI50 (SF-268 CNS): 1810 nM
TGI (SF-268 CNS): 3220 nM
GI50 (SF-295 CNS): 7010 nM
TGI (SF-295 CNS): 19100 nM
GI50 (SF-539 CNS): 2140 nM
TGI (SF-539 CNS): 3600 nM
GI50 (SK-MEL-28 melanoma): 27.7 nM
TGI (SK-MEL-28 melanoma): 198 nM
GI50 (SK-MEL-5 melanoma): 130 nM
TGI (SK-MEL-5 melanoma): 1570 nM
GI50 (SK-OV-3 ovarian): 1790 nM
TGI (SK-OV-3 ovarian): 3190 nM
GI50 (SN12C renal): 14200 nM
TGI (SN12C renal): 27300 nM
GI50 (SNB-19 CNS): 2070 nM
TGI (SNB-19 CNS): 4060 nM
GI50 (SNB-75 CNS): 2070 nM
TGI (SNB-75 CNS): 3510 nM
GI50 (SR leukemia): 1710 nM
TGI (SR leukemia): 3090 nM
GI50 (SW-620 colon): 2360 nM
TGI (SW-620 colon): 3850 nM
GI50 (T-47D breast): 1880 nM
TGI (T-47D breast): 3300 nM
GI50 (TK-10 renal): 3980 nM
TGI (TK-10 renal): 13000 nM
GI50 (U251 glioblastoma): 2010 nM
TGI (U251 glioblastoma): 3480 nM
GI50 (UACC-257 melanoma): 25.7 nM
TGI (UACC-257 melanoma): 164 nM
GI50 (UACC-62 melanoma): 22.6 nM
TGI (UACC-62 melanoma): 285 nM
GI50 (UO-31 renal): 15800 nM
TGI (UO-31 renal): 29500 nM
